According to patent US20120046284A1, “Salts and hydrates of 4-[(3-chloro-4-fluoro-phenyl)amino]-6-(cis-4--cyclohexan-1-yloxy)-7-methoxy-quinazoline, their use as a medicament and the preparation thereof” (BOEHRINGER INGELHEIM INTERNATIONAL GMBH, priority 2010, published 2012):
In brackets after ≈: the same amount, converted by molar mass. Counter-ions that a name gives are not always drawn.

Key:
[1] = Solubility tests in water (2 hours shaking at ambient temperature, UV spectroscopy; pH of saturated solution); assay type: physicochemical; settings: for solubility: in water, 2 hours, ambient temperature; for intrinsic pH of the saturated solution: saturated aqueous solution
Protocol: The solubility of the different crystalline forms of formula (I) or (6) in water is determined as follows: approx. 5 mg of the corresponding form are added to 5 ml of water. The mixture is shaken for 2 hours at ambient temperature in an overhead shaker made by the Heidolph company. Then the undissolved fractions are filtered off through a 0.45 μm PTFE filter. The dissolved fraction in the filtrate is determined by UV spectroscopy. In addition, the pH of the saturated aqueous solution is also measured with a standard pH electrode.

[2] = biological target: T1, human EGF-R (Homo sapiens, UniProt P00533); assay: Inhibition of the EGFR-dependent proliferation (EGF-stimulated murine haematopoietic cell line expressing human EGF-R); assay type: cell-based; settings: 20 ng/ml human EGF, 48 hours at 37° C.
T1 construct: expressed in transfected cells
Protocol: A murine haematopoietic cell line is genetically modified so as to express functional human EGF-R. The proliferation of this cell line can therefore be stimulated by EGF.
The test is carried out as follows:
The cells are cultivated in RPMI/1640 medium. The proliferation is stimulated with 20 ng/ml of human EGF (Promega). To investigate the inhibitory activity of the compounds according to the invention these compounds are dissolved in 100% dimethylsulphoxide (DMSO) and added to the cultures in various dilutions, the maximum DMSO concentration being 1%. The cultures are incubated for 48 hours at 37° C.
In order to determine the inhibitory activity of the compound (I.1) according to the invention the relative cell number is measured in O.D. units using the Cell Titer 96TM AQueous Non-Radioactive Cell Proliferation Assay (Promega). The relative cell number is calculated as a percentage of the control and the concentration of active substance which inhibits the proliferation of the cells by 50% (IC50) is derived therefrom.

[3] = Water absorption tests (DVS, hygroscopic characteristics); assay type: physicochemical
Protocol: A DVS-1 made by Surface Measurement Systems (=SMS) is used to investigate the hygroscopic characteristics: the following humidity profiles are used: from 10-90% r.h. in steps of 10%, absorption and desorption profiles are recorded, typical weights: 10-20 mg The corresponding diagrams (kinetic and isothermic plot) of the different forms are shown in FIGS. 1c+d-5c+d.

[4] = listed as anhydrous free base (6)
[5] = listed as hemihydrochloride sesquihydrate (I.1)
[6] = listed as monohydrate free base (I.2)

T1 sequence (P00533 25-1210): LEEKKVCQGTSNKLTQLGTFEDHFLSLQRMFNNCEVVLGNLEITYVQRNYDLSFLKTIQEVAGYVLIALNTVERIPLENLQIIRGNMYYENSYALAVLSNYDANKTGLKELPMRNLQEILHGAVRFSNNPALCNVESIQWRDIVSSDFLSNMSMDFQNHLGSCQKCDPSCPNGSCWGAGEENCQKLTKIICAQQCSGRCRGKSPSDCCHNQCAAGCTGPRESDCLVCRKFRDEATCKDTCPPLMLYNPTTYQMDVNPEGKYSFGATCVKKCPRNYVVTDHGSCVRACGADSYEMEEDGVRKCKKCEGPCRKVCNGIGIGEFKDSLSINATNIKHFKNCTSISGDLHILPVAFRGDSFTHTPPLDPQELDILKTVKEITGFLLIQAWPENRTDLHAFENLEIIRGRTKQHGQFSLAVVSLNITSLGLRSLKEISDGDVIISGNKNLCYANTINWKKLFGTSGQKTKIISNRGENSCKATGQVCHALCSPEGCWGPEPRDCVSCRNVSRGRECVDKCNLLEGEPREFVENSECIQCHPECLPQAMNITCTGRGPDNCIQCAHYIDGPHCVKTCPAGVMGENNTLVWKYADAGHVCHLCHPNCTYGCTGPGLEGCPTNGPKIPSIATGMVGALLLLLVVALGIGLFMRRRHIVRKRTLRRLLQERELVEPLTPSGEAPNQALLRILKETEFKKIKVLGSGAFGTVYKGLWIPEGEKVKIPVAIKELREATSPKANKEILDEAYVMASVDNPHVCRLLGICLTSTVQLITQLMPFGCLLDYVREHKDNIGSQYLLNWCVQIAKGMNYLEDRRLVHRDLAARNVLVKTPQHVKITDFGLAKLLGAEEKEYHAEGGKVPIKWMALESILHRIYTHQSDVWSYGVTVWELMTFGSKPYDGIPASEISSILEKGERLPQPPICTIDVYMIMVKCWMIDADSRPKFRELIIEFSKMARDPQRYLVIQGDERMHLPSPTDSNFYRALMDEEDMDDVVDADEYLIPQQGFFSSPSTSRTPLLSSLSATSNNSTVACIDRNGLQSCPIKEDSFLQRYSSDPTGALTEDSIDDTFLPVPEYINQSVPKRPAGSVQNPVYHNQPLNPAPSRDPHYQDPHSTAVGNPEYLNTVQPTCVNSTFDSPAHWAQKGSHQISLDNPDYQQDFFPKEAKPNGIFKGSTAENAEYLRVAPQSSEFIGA

## COc1cc2ncnc(Nc3ccc(F)c(Cl)c3)c2cc1O[C@H]1CC[C@@H](N(C)C(=O)N2CCOCC2)CC1 [(6), 4-[(3-chloro-4-fluoro-phenyl)amino]-6-(cis-4-{N-[(morph-1-olin-4-yl)carbonyl]-N-methyl-amino}-cyclohexan-1-yloxy)-7-methoxy-quinazoline]
[1]; [4]
  solubility: <0.001 mg/mL
  intrinsic pH of the saturated solution: 5.9

## COc1cc2ncnc(Nc3ccc(F)c(Cl)c3)c2cc1O[C@H]1CC[C@@H](N(C)C(=O)N2CCOCC2)CC1 [Compound (I.1), 4-[(3-chloro-4-fluoro-phenyl)amino]-6-(cis-4-{N-[(morph-1-olin-4-yl)carbonyl]-N-methyl-amino}-cyclohexan-1-yloxy)-7-methoxy-quinazoline]
[1]; [5]
  solubility: 0.17 mg/mL (≈ 312 µM)
  intrinsic pH of the saturated solution: 6.5
[2]
  IC50: 0.01 µM
[3]
  hygroscopic characteristics: change in particle size or phase depending on the relative humidity: no change in particle size or phase change takes place

## COc1cc2ncnc(Nc3ccc(F)c(Cl)c3)c2cc1O[C@H]1CC[C@@H](N(C)C(=O)N2CCOCC2)CC1 [Compound (I.2), 4-[(3-chloro-4-fluoro-phenyl)amino]-6-(cis-4-{N-[(morph-1-olin-4-yl)carbonyl]-N-methyl-amino}-cyclohexan-1-yloxy)-7-methoxy-quinazoline]
[1]; [6]
  solubility: <0.001 mg/mL
  intrinsic pH of the saturated solution: 5.9

## COc1cc2ncnc(Nc3ccc(F)c(Cl)c3)c2cc1O[C@H]1CC[C@@H](N(C)C(=O)N2CCOCC2)CC1 [high-melting form monohydrochloride (I.3)] [4-[(3-chloro-4-fluoro-phenyl)amino]-6-(cis-4-{N-[(morph-1-olin-4-yl)carbonyl]-N-methyl-amino}-cyclohexan-1-yloxy)-7-methoxy-quinazoline]
[1]
  solubility: 0.041 mg/mL
  intrinsic pH of the saturated solution: 3.3

## COc1cc2ncnc(Nc3ccc(F)c(Cl)c3)c2cc1O[C@H]1CC[C@@H](N(C)C(=O)N2CCOCC2)CC1 [low-melting form monohydrochloride (I.3), 4-[(3-chloro-4-fluoro-phenyl)amino]-6-(cis-4-{N-[(morph-1-olin-4-yl)carbonyl]-N-methyl-amino}-cyclohexan-1-yloxy)-7-methoxy-quinazoline]
[1]
  solubility: 0.047 mg/mL
  intrinsic pH of the saturated solution: 4.0
